# From US8597922B2, “Methods and compositions for producing olefins” (LS9, Inc., priority 2007, dated 2013)
# Columns and labels:
# ATCC 8456 cells = test: Fatty acid feeding of ATCC 8456 cells, α-olefins analyzed by GC-MS; type: cell-based, Jeotgalicoccus sp. ATCC 8456; settings: fatty acid fed at 0.5 g/l (0.05%), 40-48 h at 30° C.; for α-olefin whose production increased upon fatty acid feeding: olefins not normally produced by ATCC 8456
# Method: ATCC 8456 cells were grown in 15 mL TSBYE medium (3% Tryptic Soy Broth+0.5% Yeast Extract). Fatty acids were added to the culture medium at final concentrations of 0.5 g/l (0.05%). After growth for 40-48 h at 30° C., cells from 5 mL of culture were pelleted, resuspended in 1 mL methanol, sonicated for 30 min, and extracted with 4 mL hexane. After solvent evaporation, samples were resuspended in 0.1 mL hexane and analyzed by GC-MS.
# [1] = tested on: ATCC 8456 cell free extract; test: Conversion of free fatty acids into α-olefins by ATCC 8456 cell free extract; type: biochemical, Jeotgalicoccus sp. ATCC 8456; settings: for α-olefin formed from the fatty acid by cell free extract: 1 mM free fatty acid salt, room temperature, 3 h
# Method: A cell free extract of ATCC 8456 was used to convert free fatty acids into α-olefins. The cell free extract was generated using the following procedure: ATCC 8456 cells were grown in TSBYE medium (3% Tryptic Soy Broth+0.5% Yeast Extract) at 30° C. for 24 h with shaking. The cells were then pelleted from the culture by centrifuging at 3,700 rpm for 20 min. The cell pellet was then resuspended in 50 mM Tris buffer pH 7.5 with 0.1 M NaCl and 2.0 mM dithiothreitol to a concentration of 0.1 g/mL cells. To this cell slurry, 200 units/mL of lysostaphin (Sigma) were added on ice. The cell lysis reaction was allowed to proceed for 30 min. The cells were then sonicated at 12 W on ice for three cycles of 1.5 sec of sonication followed by 1.5 sec of rest. Sonication lasted for a total of 9 sec. This procedure was repeated 5 times with a 1 min interval between each sonication cycle. The lysed cells were then centrifuged at 12,000 rpm for 10 min to pellet the cell debris. The supernatant (i.e., cell free extract) was then removed and used for the conversion of free fatty acids to α-olefins.
# First, a 5% stock solution of sodium or potassium stearate was made in 1% Tergitol solution (Sigma, St. Louis, Mo.). Next, 6 μL of the stock solution was added to 1 mL of the cell free extract at room temperature to obtain a final concentration of 1 mM free fatty acid salt. The reaction was conducted at room temperature for 3 h. The α-olefins were recovered by adding 200 μL of ethyl acetate to the mixture, vortexing briefly, centrifuging briefly, and then removing the organic phase. The α-olefins were detected using GC/MS.
# In sample 1 (TIC1; black line in FIG. 5), no stearic acid was added to the cell free extract. In sample 2 (TIC3; blue line in FIG. 5), the cell free extract was replaced with 50 mM Tris pH 7.5 buffer with 0.1 M sodium chloride to which stearic acid was added. In sample 3 (TICS; red line in FIG. 5), stearic acid was added to the cell free extract. The peak at 7.62 min had the same retention time and the same mass spectra as a 1-heptadecene standard (Sigma). When eicosanoic acid was added under similar conditions, 1-nonadecene was formed.
# When the cell free extract was supplemented with several co-factors in 1 mM concentrations, no increase in α-olefin synthesis was observed. The co-factors examined were NAD+, NADP+, NADH, NADPH, FADH2, SAM, ATP, and CoA. In addition, Mg^2+ was examined at a 10 mM concentration. The co-factor requirement was also tested by dialyzing the cell free extract with a 10 kDa cut-off membrane for 1.5 h in a volume 200-fold greater than the cell extract volume using a dialysis buffer: 50 mM Tris, pH 7.5 with 0.1 M sodium chloride. No decrease in α-olefin synthesis was observed after dialysis. Additionally, no decrease in α-olefin synthesis was observed when 10 mM EDTA pH 7.5 was added to the reaction mixture.
# ORF880 = test: In vitro reaction rates of purified ORF880 with different fatty acid substrates; type: biochemical, Jeotgalicoccus sp. ATCC8456; settings: 1.0 μM ORF880, 200 μM fatty acid salt, pH 7.2, room temperature, between 20 min and 47 min
# Method: The genomic DNA encoding Jeotgalicoccus sp. ATCC8456_orf880 was cloned into the NdeI and XhoI sites of vector pET15b (Novagen) under the control of the T7 promoter for expression in and purification from E. coli. This plasmid expressed an N-terminal His-tagged version of 8456_orf880.
# An E. coli BL21 strain (DE3) (Invitrogen) was transformed with pET15b-orf880 using routine chemical transformation techniques. Protein expression was carried out by first inoculating a colony of the E. coli strain in 5 mL of LB media supplemented with 100 mg/L of carbenecillin and shaken overnight at 37° C. to produce a starter culture. This starter culture was used to inoculate 1 L of LB media supplemented with 100 mg/L of carbenecillin. The culture was shaken at 37° C. until an OD600 value of 0.6 was reached. The culture was placed on ice for 10 min before IPTG was added to a final concentration of 250 μM. The culture was then shaken at 18° C. for approximately 18 h. The culture was then centrifuged at 3,700 rpm for 20 min at 4° C. The pellet was then resuspended in 30 mL of buffer containing 100 mM sodium phosphate buffer at pH 7.2 supplemented with Bacterial ProteaseArrest (GBiosciences). The cells were then sonicated at 12 W on ice for 9 sec with 1.5 sec of sonication followed by 1.5 sec of rest. This procedure was repeated 5 times with one min intervals between each sonication cycle. The cell free extract was centrifuged at 10,000 rpm for 30 min at 4° C. 5 mL of Ni-NTA (Qiagen) was added to the supernatant and the mixture was gently stirred at 4° C. The slurry was passed over a column removing the resin from the lysate. The resin was then washed with 30 mL of buffer containing 100 mM sodium phosphate buffer at pH 7.2 plus 30 mM imidazole. Finally, the protein was eluted with 15 mL of 100 mM sodium phosphate buffer at pH 7.2 plus 250 mM imidazole. The protein solution was dialyzed with 200 volumes of 100 mM sodium phosphate buffer at pH 7.2. Protein concentration was determined using the Bradford assay (Biorad). 125 μg/mL of protein was obtained.
# In order to assay the in vitro fatty acid substrate specificity of ORF880, potassium salts of the following fatty acids were prepared: tetradecanoic acid, hexadecanoic acid, octadecanoic acid, eicosanoic acid, and behenic acid (Sigma). The fatty acid solutions were made with 2% ethanol and 2% Tergitol solution (Sigma, St. Louis, Mo.) to a final concentration of 20 mM.
# The kinetics of the decarboxylation reaction was determined using potassium octadecanoate. A 200 μL reaction was prepared with the following reactant concentrations: 1.25 μM of ORF880, 200 μM of potassium octadecanoate, […], and 100 mM sodium phosphate buffer at pH 7.2. […] Samples were analyzed using GC/MS using the alkane-1 splitless method, which is performed using the following parameters: run time: 20 min; column: HP-5-MS Part No. 19091S-433E (length of 30 meters; I.D.: 0.25 mm narrowbore; film: 0.25 μM); sample: standard ethyl acetate extraction; inject: 1 μL Agilent 6850 inlet; inlet: 300° C. splitless; carrier gas: helium; flow: 1.3 mL/min; oven temp: 100° C. hold 5 min, 320 at 20° C./min, 320 hold 5 min; det: Agilent 5975B VL MSD; det. temp: 300° C.; scan: 50-500 M/Z. Calibration curves were generated using 1-heptadecene dissolved in ethyl acetate. Based upon this analysis, the product production was determined to be linear from 5 min to 60 min. […]
SMILES,Activity (nM alkene produced/min) (ORF880),effect of co-factor supplementation on α-olefin synthesis ([1]; co-factor at 1 mM),other results
CCCCCCCCCCCCCCCCCC(=O)O [octadecanoic acid],77.2 nM alkene produced/min,,α-olefin whose production increased upon fatty acid feeding (ATCC 8456 cells): 1-pentadecene; α-olefin formed from the fatty acid by cell free extract [1]: 1-heptadecene
NC(=O)c1ccc[n+]([C@@H]2O[C@H](COP(=O)([O-])OP(=O)(O)OC[C@H]3O[C@@H](n4cnc5c(N)ncnc54)[C@H](O)[C@@H]3O)[C@@H](O)[C@H]2O)c1 [NAD+],,no increase,
Cc1cc2c(cc1C)N(C[C@H](O)[C@H](O)[C@H](O)COP(=O)(O)OP(=O)(O)OC[C@H]1O[C@@H](n3cnc4c(N)ncnc43)[C@H](O)[C@@H]1O)c1[nH]c(=O)[nH]c(=O)c1N2 [FADH2],,no increase,
NC(=O)C1=CN([C@@H]2O[C@H](COP(=O)(O)OP(=O)(O)OC[C@H]3O[C@@H](n4cnc5c(N)ncnc54)[C@H](O)[C@@H]3O)[C@@H](O)[C@H]2O)C=CC1 [NADH],,no increase,
NC(=O)C1=CN([C@@H]2O[C@H](COP(=O)(O)OP(=O)(O)OC[C@H]3O[C@@H](n4cnc5c(N)ncnc54)[C@H](OP(=O)(O)O)[C@@H]3O)[C@@H](O)[C@H]2O)C=CC1 [NADPH],,no increase,
NC(=O)c1ccc[n+]([C@@H]2O[C@H](COP(=O)([O-])OP(=O)(O)OC[C@H]3O[C@@H](n4cnc5c(N)ncnc54)[C@H](OP(=O)(O)O)[C@@H]3O)[C@@H](O)[C@H]2O)c1 [NADP+],,no increase,
CC(C)(COP(=O)(O)OP(=O)(O)OC[C@H]1O[C@@H](n2cnc3c(N)ncnc32)[C@H](O)[C@@H]1OP(=O)(O)O)[C@@H](O)C(=O)NCCC(=O)NCCS [CoA],,no increase,
CCCCCCCCCCCCCC(=O)O [tetradecanoic acid],22.9 nM alkene produced/min,,
CCCCCCCCCCCCCCCCCCCCCC(=O)O [behenic acid],30.6 nM alkene produced/min,,
[Mg+2] [Mg^2+],,,effect of co-factor supplementation on α-olefin synthesis ([1]; 10 mM concentration): no increase
O=C(O)CN(CCN(CC(=O)O)CC(=O)O)CC(=O)O [EDTA],,,"effect on α-olefin synthesis when added to the reaction mixture ([1]; 10 mM, pH 7.5): no decrease"
Nc1ncnc2c1ncn2[C@@H]1O[C@H](COP(=O)(O)OP(=O)(O)OP(=O)(O)O)[C@@H](O)[C@H]1O [ATP],,no increase,
C[S+](CC[C@H](N)C(=O)[O-])C[C@H]1O[C@@H](n2cnc3c(N)ncnc32)[C@H](O)[C@@H]1O (some centres unmarked) [SAM],,no increase,
CCCCCCCCCCCCCCCCCCCC(=O)O [eicosanoic acid],19.7 nM alkene produced/min,,increase in 1-nonodecene production (ATCC 8456 cells; versus no fatty acid feeding): approximately 18 fold; α-olefin formed from the fatty acid by cell free extract [1]: 1-nonadecene
CCCCCCCCCCCCCCCC(=O)O [hexadecanoic acid],181.9 nM alkene produced/min,,α-olefin whose production increased upon fatty acid feeding (ATCC 8456 cells): 1-heptadecene
